Test results reported in US20100190827A1, “POLYMORPHIC FORM OF RIMONABANT, METHOD FOR PREPARING IT AND PHARMACEUTICAL COMPOSITIONS CONTAINING IT” (SANOFI-AVENTIS, priority 2001, published 2010).
Values after ≈ are worked out from the molar mass of the structure shown. Where two headings read alike, the source gives them in different places.

Assay: Solubility of the crystalline forms in methylcyclohexane (Mullin method)
Assay type: physicochemical
Settings: for Solubility Concentration / solubility: at equilibrium; for Thermodynamic stability compared with form I: inferred from the lower solubility in methylcyclohexane, 10 °C to 70 °C; for solubility: methylcyclohexane, organic solvent or mixture, thermodynamic from solid, read-out: Solubility Concentration
Protocol: The solubility of the 2 crystalline forms of rimonabant in the same solvent was also measured. The method used is described in Measurement of Solubility in J. W. Mullin. Crystallization: 3rd edition, Ipswich (GB): Butterworth-Heinemann, 1993, p. 105.
The measurements were carried out for each of the crystalline forms, in solution in methylcyclohexane at temperatures varying from 10° C. to 70° C. At equilibrium, for each temperature, the undissolved crystalline form is characterized by infrared spectrography, in particular by its main bands.

SMILES	Solubility Concentration (in methylcyclohexane, 10.00 °C) [g/L]	Solubility Concentration (in methylcyclohexane, 20.00 °C) [g/L]	Solubility Concentration (in methylcyclohexane, 30.00 °C) [g/L]	Solubility Concentration (in methylcyclohexane, 40.00 °C) [g/L]	Solubility Concentration (in methylcyclohexane, 50.00 °C) [g/L]	Solubility Concentration (in methylcyclohexane, 60.00 °C) [g/L]	Solubility Concentration (in methylcyclohexane, 70.00 °C) [g/L]	Solubility compared with form I (in methylcyclohexane, all temperatures between 10 °C and 70 °C)	Thermodynamic stability compared with form I (listed as crystalline form II of rimonabant)	Thermodynamic stability compared with form I (listed as rimonabant form II)	solubility (10 °C, in methylcyclohexane, 10.00 °C) [mg/mL]	solubility (20 °C, in methylcyclohexane, 20.00 °C) [mg/mL]	solubility (30 °C, in methylcyclohexane, 30.00 °C) [mg/mL]	solubility (40 °C, in methylcyclohexane, 40.00 °C) [mg/mL]	solubility (50 °C, in methylcyclohexane, 50.00 °C) [mg/mL]	solubility (60 °C, in methylcyclohexane, 60.00 °C) [mg/mL]	solubility (70 °C, in methylcyclohexane, 70.00 °C) [mg/mL]
Cc1c(C(=O)NN2CCCCC2)nn(-c2ccc(Cl)cc2Cl)c1-c1ccc(Cl)cc1 [Form II, N-piperidino-5-(4-chlorophenyl)-1-(2,4-dichlorophenyl)-4-methyl-3-pyrazolecarboxamide]	4.50 (≈ 9.7 mM)	6.60 (≈ 14.2 mM)	9.20 (≈ 19.8 mM)	12.60 (≈ 27.2 mM)	19.00 (≈ 41 mM)	29.20 (≈ 63 mM)	42.00 (≈ 90.6 mM)	less soluble	stability greater than that of form I	thermodynamically more stable than rimonabant form I							
Cc1c(C(=O)NN2CCCCC2)nn(-c2ccc(Cl)cc2Cl)c1-c1ccc(Cl)cc1 [Form I, N-Piperidino-5-(4-chlorophenyl)-1-(2,4-dichlorophenyl)-4-methyl-3-pyrazolecarboxamide, reference compound]											4.86 (≈ 10.5 mM)	6.92 (≈ 14.9 mM)	9.3 (≈ 20.1 mM)	13.7 (≈ 29.5 mM)	20.4 (≈ 44 mM)	31.2 (≈ 67.3 mM)	52.4 (≈ 113 mM)
